According to paper PMC5511861, “DS16570511 is a small-molecule inhibitor of the mitochondrial calcium uniporter” (Cell Death Discovery, 2017):
pIC50: −log10 of the molar value.

Assays:
Format in all cases: biochemical
[1] = test system: Ca2+ uptake of rat heart mitochondria; experiment: Ca2+ uptake assay using isolated rat heart mitochondria (atomic absorbance spectrometer); conditions: 100 μM CaCl2; read-out: IC50, inhibition of Ca2+ uptake of rat heart mitochondria
Description: We then asked whether DS16570511 inhibits Ca^2+ uptake in isolated mitochondria from animal heart. An atomic absorbance spectrometer-based detection method was employed to analyze intramitochondrial Ca^2+ levels. We prepared freshly isolated mitochondria from pig heart, and the mitochondria were incubated with 100 μM CaCl2.
Figure 3 DS16570511 inhibits Ca^2+ uptake in isolated heart mitochondria. (a) Effect of RuR on Ca^2+ uptake of pig heart mitochondria. […] Data are mean with S.E.M. from three independent samples. (b) Inhibition rate of RuR or DS16570511 on Ca^2+ uptake of pig heart mitochondria. Inhibition 0 or 100% is defined as a value of Ca^2+-untreated mitochondria or Ca^2+-treated mitochondria, respectively. Data are mean with S.E.M. from three independent samples. (c) Inhibition rate of RuR or DS16570511 on Ca^2+ uptake of rat heart mitochondria. Data are mean with S.E.M./variation from three or two independent samples for DS16570511 or RuR, respectively.
Mitochondria were isolated by using the mitochondria isolation kit and then dissolved in the swelling buffer. The protein concentration of the mitochondrial solution was 5 mg/ml. […] The solution was then diluted by water, and Ca^2+ concentration of the solution was measured by atomic absorbance spectrometer (Hitachi High-Technologies Corporation, Z-2710, Tokyo, Japan).

[2] = biological target: T1, mitochondrial calcium uniporter (Homo sapiens, UniProt Q8NE86); experiment: Ca2+ uptake of isolated mitochondria from HEK293A cells (aequorin luminescence); parameters: isolated mitochondria from HEK293A cells were used; endogenous in cells; host or cells: mitochondria isolated from HEK293A cells stably expressing mitochondria-targeted aequorin; conditions: 100 μM Ca2+, 5 min preincubation; read-out: IC50, inhibition of Ca2+ uptake of isolated mitochondria from HEK293A cells
T1 sequence (Q8NE86 51-351): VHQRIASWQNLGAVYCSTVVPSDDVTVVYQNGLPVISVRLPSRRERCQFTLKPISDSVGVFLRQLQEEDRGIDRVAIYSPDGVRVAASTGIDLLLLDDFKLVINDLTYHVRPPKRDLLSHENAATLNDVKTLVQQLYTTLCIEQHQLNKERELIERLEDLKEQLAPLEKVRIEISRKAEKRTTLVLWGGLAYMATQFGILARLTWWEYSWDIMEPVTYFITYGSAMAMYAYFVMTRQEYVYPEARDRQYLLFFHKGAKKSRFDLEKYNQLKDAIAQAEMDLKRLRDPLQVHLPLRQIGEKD
T1 sequence (Q9H4I9 48-107 partner limits assumed): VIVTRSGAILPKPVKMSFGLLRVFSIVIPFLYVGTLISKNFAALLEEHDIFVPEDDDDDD
Description: Mitochondrial Ca^2+ uptake activity is regulated by cytosolic protein kinase signaling,[19] raising the possibility that HTS hits contained indirect inhibitors of the uniporter, such as inhibitors of cytosolic signaling. To examine the direct inhibitory effect of the compounds on the mitochondrial Ca^2+ uptake, isolated mitochondria from HEK293A cells were used. Ca^2+ uptake of the isolated mitochondria was observed as a rapid increase in the luminescence level after application of 100 μM Ca^2+ (Figure 2a).
Figure 2 DS16570511 inhibits Ca^2+ uptake in isolated mitochondria from HEK293A cells. (a) Representative raw data of Ca^2+ uptake in isolated mitochondria. (b) Effect of DS16570511 or Ru360 on mitochondrial Ca^2+ uptake. The area under the curve of temporal aequorin activities is used for calculation of inhibitory activities. Inhibition 0 or 100% is defined as a value of […], respectively. Data are mean with S.E.M. from three independent samples.
To monitor Ca^2+ uptake activity of isolated mitochondria, mitochondria were prepared from the cells (1×10^8 cells) stably expressing mitochondria-targeted aequorin by using a mitochondria isolation kit. […] The luminescence levels were detected as described above.

[3] = test system: membrane potential of pig heart mitochondria; experiment: Mitochondrial membrane potential assay (JC-10) in pig heart mitochondria; conditions: JC-10, 5 min incubation
Excerpt: Next we analyzed the mechanism of action of DS16570511. The previous studies implicated two possible inhibitory mechanisms for the mitochondrial Ca^2+ uptake: (1) direct blockade of the calcium uniporter and (2) disruption of the membrane potential.[20],[21] Mitochondrial Ca^2+ uptake is mediated by electrical potential across the mitochondrial inner membrane, which is generated by the oxidative phosphorylation system. […] To examine effects on the mitochondrial membrane potential, fluorescent indicator JC-10 was used in mitochondria from pig heart.
(a) Effect of FCCP on Ca^2+ uptake of pig heart mitochondria. […] Relative membrane potential 0 or 100% is defined as value of 1 μM FCCP-treated mitochondria or vehicle-treated mitochondria, respectively. Data are mean with S.E.M. from three (a) or four (b) independent samples.
Pig heart mitochondria were prepared as described above and suspended in the swelling buffer containing 1 μM JC-10. The protein concentration of the solution was 5 mg/ml. Five minutes after incubation of the mitochondria with DS16570511 at room temperature, fluorescence intensities were measured by a FlexStation 3 (Molecular Devices, LLC, Sunnyvale, CA, USA) using the green channel (excitation/emission wavelength: 485/538 nm) or the red channel (excitation/emission wavelength: 485/612 nm).

## Cc1onc(-c2c(Cl)cccc2Cl)c1CNc1cccc(C(=O)c2cn(CCCC(=O)O)c3ccccc23)c1 [DS16570511]
[1]
  pIC50: 4.60
[2]
  pIC50: 6.07
[3]
  effect on mitochondrial membrane potential: not reduced
